{
  "source": "patent US7208146B2",
  "about": "“Methods of treating lymphoma and leukemia” (Genitope Corporation, priority 1996, dated 2007)",
  "tested_on": "parental BW5147.G.1.4 cells",
  "test": "MTX sensitivity (growth cut off) of the parental cell line",
  "type": "cell-based",
  "method": "The parental (i e., non-transfected) BW5147.G.1.4 cells barely grow in the presence of 10 nM MTX. By visual inspection 3 to 5 days after plating, greater than about 98 percent of the parental BW5147.G.1.4 cells are killed when 1×10^4 cells are placed in 2 ml of medium containing 20 nM MTX in the well of a 24 well plate (this level of MTX is referred to as the growth cut off for the parental BW5147.G.1.4 cell line). At 30 nM MTX, colonies of BW5147.G.1.4 cells are seen at a frequency of less than 10^−7.\nThe transfected and selected cells (“selectants”) are plated in a range of MTX concentrations ranging from 10 to 100 nM; the cells are plated at a density of 1 to 5×10^4 cells per well in a 24 well plate (Costar); the selectants are plated at the same density of cells as was used to determine the level of MTX at which > about 98% of the parental cells were killed. This is done because MTX irreversibly binds to DHFR so that the number of cells present in a given volume effects the concentration of MTX required to kill the cells; that is if a higher density of cell is used, a higher concentration of MTX will be required to kill about 98% of the cells [For example when the parental cells are plated at a density of 1×10^4 cells/2 ml medium in the well of a 24 well plate 20 nM MTX is sufficient to kill >98% cells in a 3 to 5 day assay. If the density is increased two-fold (1×10^4 cells in ml medium), 25 nM MTX is required for >98% killing. If 5×10^4 cells are placed in 2 ml of medium in the well of a 24 well plate, 30 nM MTX is required to achieve >98% killing.]\nEight selectant clones having the highest levels of expression of DR were chosen for further manipulation. These eight selectant clones were then tested for their sensitivity to MTX. Each clone was plated at a density of 2×10^4 cells/well in a 24 well plate. Each well contained 1 ml of medium containing RPMI-1640, 10% dialyzed FCS and MTX. The clones were grown in the presence of either 3, 10, 30, 60 or 90 nM MTX. Non-transfected BW5147.G.1.4 cells were also grown in the above range of MTX as a control. Clones which grew in MTX levels at least 2–3 fold higher than that tolerated by the parental BW5147.G.1.4 (typically less than or equal to 10 nM MTX) were selected for further analysis. Four of the selectant clones grew in greater than or equal to 30 nM MTX and were retained; these clones are the primary transfectants chosen for amplification. All 4 clones which grew in >30 nM MTX were analyzed for the ability to express DR molecules on the surface by an ELISA. The cell surface ELISA was performed as follows.",
  "data": [
    {"smiles": "CN(Cc1cnc2nc(N)nc(N)c2n1)c1ccc(C(=O)N[C@@H](CCC(=O)O)C(=O)O)cc1", "note": "[MTX, methotrexate]", "values": [
      {"measurement": "growth of parental cells in the presence of MTX", "setting": "10 nM MTX", "value": "barely grow"},
      {"measurement": "parental BW5147.G.1.4 cells killed", "setting": "20 nM MTX, 1×10^4 cells in 2 ml medium, well of a 24 well plate, visual inspection 3 to 5 days after plating", "value": "greater than 98%"},
      {"measurement": "frequency of colonies of BW5147.G.1.4 cells", "setting": "30 nM MTX", "value": "less than 10^−7"},
      {"measurement": "MTX concentration sufficient to kill >98% of parental cells", "setting": "1×10^4 cells/2 ml medium, 24 well plate, 3 to 5 day assay", "value": 20, "unit": "nM"},
      {"measurement": "MTX level tolerated by parental BW5147.G.1.4", "setting": "2×10^4 cells/well in 1 ml, 24 well plate, RPMI-1640 with 10% dialyzed FCS", "value": "less than or equal to 10 nM"},
      {"measurement": "MTX concentration required for >98% killing of parental cells", "setting": "5×10^4 cells in 2 ml medium, 24 well plate", "value": 30, "unit": "nM"},
      {"measurement": "MTX concentration required for >98% killing of parental cells", "setting": "density increased two-fold (1×10^4 cells in ml medium)", "value": 25, "unit": "nM"}
    ]}
  ]
}
